Measurements from patent US20190255144A1, “SPECIFIC OLIGOPEPTIDES AS ANTI-ANGIOGENIC DRUGS” (NEURONAX, priority 2014, published 2019).

System: chorioallantoic membrane (CAM) vascularization
Experiment: Treatments on the chorioallantoic membrane (CAM), fluorescein angiography
Format: in vivo, chicken embryo
Details: impregnated sponge on CAM at ED9; oligopeptide 250 μg/mL (9 hours), VEGF 10 ng/mL
Excerpt: In fact, TSP-1 is known for inducing the apoptosis of endothelial cells. […] It is also a decisive process under certain physiological and pathological conditions (cancers in particular). This mechanism is controlled by numerous factors having either an inhibitor potential or an activator. So as to evaluate the main properties of these in vivo factors, the most common model is the CAM (chorioallantoic membrane) model from the chicken embryo (Ribatti et al., 2000). It offers the advantage of making it possible to test the pro- or anti-angiogenic factors during an active angiogenesis phase between the embryonic stages 4j and 10j. The major effects of the various molecules can therefore be evaluated in vivo. The model of the CAM can also be used in experimental tumor development. The grafting of human cancer cells onto the surface of the CAM is carried out in the 9-day embryonic stage. Three days after the grafting at ED12, the formation of a tumor is visible at the surface of the CAM. The latter can be treated topically during the 48 hours that follow this stage, and the tumors are sampled at ED14j. The fertilized eggs (Haas Poultry Farm, Strasbourg, France) are kept for 24 hours at 18° C. before the incubation is started up. […] The embryonic stages are determined from tables of Hamburger and Hamilton (H and H, 1951). […]

VEGF
Vascularization / microvascularization of the CAM (in words): the microvascularization is dense and comprises numerous vascular branches
